In ChEMBL document CHEMBL3108723, “Combatting resistant bacteria with the help of Beta-lactamase inhibitors” (2014):

How the values were obtained:
Format in all cases: functional
[1] = tested on: Klebsiella pneumoniae; assay: Antibacterial activity against Klebsiella pneumoniae producing KPC2 beta-lactamase assessed as reduction in MIC of ceftazidime at […] by broth microdilution method relative to control
[2] = tested on: Pseudomonas aeruginosa; assay: Antibacterial activity against Pseudomonas aeruginosa producing PER-1 and OXA-10 beta-lactamase assessed as reduction in MIC of ceftazidime at […] by broth microdilution method relative to control
[3] = tested on: Pseudomonas aeruginosa; assay: Antibacterial activity against Pseudomonas aeruginosa producing AmpC beta-lactamase assessed as reduction in MIC of ceftazidime at […] by broth microdilution method relative to control

Measured: fold change (FC)

CC1=C[C@@H](C(N)=O)N2C[C@@H]1N(OS(=O)(=O)[O-])C2=O.[Na+]
4: all assays above

CC1=C[C@@H](C(=O)NCc2cc(=O)c(O)c[nH]2)N2C[C@@H]1N(OS(=O)(=O)O)C2=O
4: all assays above

COCC1=C[C@@H](COC)N2C[C@@H]1N(OS(=O)(=O)[O-])C2=O.[Na+]
4: all assays above
